Test results taken from patent US6720346B2, “Thiazole benzamide derivatives and pharmaceutical compositions for inhibiting cell proliferation” (Agouron Pharmaceuticals, Inc., priority 2001, dated 2004).

Columns and labels:
human CDK4/cyclin D3 = molecular target: T1, human CDK4/cyclin D3 (Homo sapiens, UniProt P11802); experiment: Inhibition of CDK4/cyclin D retinoblastoma kinase activity (Ki; % inhibition); assay type: biochemical; conditions: 0.03 μM compound
T1 construct: made in house; host or cells: insect cells co-infected with baculovirus vectors
In short: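 Insect-cell-expressed CDK4 with truncated cyclin D3 (1-264), 5 nM, phosphorylating His-tagged Rb fragment (386-928) with 25 μM [32/33P]ATP at pH 7.4, 30 °C, 20 min (60 min for tight binders). Filter capture, phosphorimager read; % inhibition at 30 nM compound, Ki from competitive or tight-binding fits.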

CDK2/cyclin A = molecular target: T2, CDK2/cyclin A (Homo sapiens, UniProt P24941); experiment: Inhibition of CDK2/cyclin A retinoblastoma kinase activity (Ki; % inhibition); assay type: biochemical; conditions: 0.03 μM compound
T2 construct: made in house; host or cells: CDK2: insect cells (baculovirus); cyclin A: E. coli
In short: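 Radiometric filter assay of CDK2/proteolyzed cyclin A (baculovirus-expressed human CDK2, 10 or 19 nM) phosphorylating an Rb fragment with 25 μM [³²P/³³P]ATP in pH 7.4 HEPES, 2% DMSO, at 30 °C for 60 or 75 min under initial-rate conditions. Library compounds screened at 30 nM for % inhibition; apparent Ki from concentration series fit to competitive or tight-binding inhibition equations.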

HCT-116 cell line = experiment: Inhibition of cell growth, MTT tetrazolium salt assay; assay type: cell-based; conditions: HCT-116 cells; for HCT-116 % Inhibition at 0.1 μM: 0.1 μM compound; for HCT-116 % Inhibition at 0.25 μM: 0.25 μM compound
In short: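 Growth inhibition was read as MTT-formazan absorbance at 540 nm, after 4 h with 0.2 mg/mL MTT. Before that, HCT-116 cells had been exposed 3–5 days at 37 °C to compounds in 0.5% (v/v) DMSO, added 4 h after plating. 50% and 90% inhibitory concentrations were taken from semi-log concentration–inhibition plots versus vehicle controls.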

T1 sequence (P11802 whole entry): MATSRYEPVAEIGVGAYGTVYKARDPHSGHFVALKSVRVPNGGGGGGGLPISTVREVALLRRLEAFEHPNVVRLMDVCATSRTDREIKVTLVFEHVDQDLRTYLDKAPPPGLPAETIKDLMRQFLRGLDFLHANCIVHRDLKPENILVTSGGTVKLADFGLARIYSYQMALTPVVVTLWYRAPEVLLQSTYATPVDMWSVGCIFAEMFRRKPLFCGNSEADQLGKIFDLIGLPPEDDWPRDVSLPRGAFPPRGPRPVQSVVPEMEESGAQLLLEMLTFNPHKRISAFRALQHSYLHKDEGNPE
T1 sequence (P30281 1-264 partner limits assumed): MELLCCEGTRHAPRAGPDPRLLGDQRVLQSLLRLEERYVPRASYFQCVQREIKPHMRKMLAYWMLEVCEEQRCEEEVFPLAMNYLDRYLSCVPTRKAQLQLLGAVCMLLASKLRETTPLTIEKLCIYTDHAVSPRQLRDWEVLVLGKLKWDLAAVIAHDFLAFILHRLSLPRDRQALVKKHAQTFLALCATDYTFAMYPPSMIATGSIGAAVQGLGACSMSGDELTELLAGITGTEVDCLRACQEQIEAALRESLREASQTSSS

Row | Structure (SMILES) | CDK4 % Inhibition at 0.03 μM (human CDK4/cyclin D3) [%] | CDK2 % Inhibition at 0.03 μM (CDK2/cyclin A) [%] | HCT-116 % Inhibition at 0.1 μM (HCT-116 cell line) [%] | HCT-116 % Inhibition at 0.25 μM (HCT-116 cell line) [%]
1 | CCN(CC)C(=O)C1CCCN(C(=O)c2ccc(Nc3nc(N)c(C(=O)c4c(F)cccc4F)s3)cc2)C1 (centres unmarked) [Example G224] | 28 | 16 | 10 | 53
2 | CCN(CCNC(=O)c1ccc(Nc2nc(N)c(C(=O)c3c(F)cccc3F)s2)cc1)c1cccc(C)c1 [Example G226] | 44 | 48 | 15 | 56
3 | Nc1nc(Nc2ccc(C(=O)Nc3ccc4[nH]ccc4c3)cc2)sc1C(=O)c1c(F)cccc1F [Example G227] | 17 | 28 | 17 | 84
4 | Nc1nc(Nc2ccc(C(=O)NCc3ccccc3Cl)cc2)sc1C(=O)c1c(F)cccc1F [Example G228] | 36 | 38 | 24 | 75
5 | Nc1nc(Nc2ccc(C(=O)NCCN3CCNC3=O)cc2)sc1C(=O)c1c(F)cccc1F [Example G229] | 9 | 12 | 8 | 44
6 | Nc1nc(Nc2ccc(C(=O)Nc3ccc(OC(F)(F)F)cc3)cc2)sc1C(=O)c1c(F)cccc1F [Example G230] | 20 | 8 | 19 | 52
7 | CCOC(=O)N1CCC(NC(=O)c2ccc(Nc3nc(N)c(C(=O)c4c(F)cccc4F)s3)cc2)CC1 [Example G231] | 30 | 15 | 6 | 55
8 | Nc1nc(Nc2ccc(C(=O)Nc3ccccc3F)cc2)sc1C(=O)c1c(F)cccc1F [Example G235] | 14 | 14 | 10 | 51
9 | CC(CCCC(C)(C)O)NC(=O)c1ccc(Nc2nc(N)c(C(=O)c3c(F)cccc3F)s2)cc1 (centres unmarked) [Example G237] | 12 | 9 | 20 | 49
10 | COc1ccc(CCNC(=O)c2ccc(Nc3nc(N)c(C(=O)c4c(F)cccc4F)s3)cc2)cc1 [Example G238] | 26 | 18 | 22 | 58
11 | COc1ccc(N2CCN(C(=O)c3ccc(Nc4nc(N)c(C(=O)c5c(F)cccc5F)s4)cc3)CC2)cc1 [Example G240] | 27 | 11 | 15 | 52
12 | COc1ccc(CCNC(=O)c2ccc(Nc3nc(N)c(C(=O)c4c(F)cccc4F)s3)cc2)cc1OC [Example G241] | 29 | 22 | 28 | 57
13 | Nc1nc(Nc2ccc(C(=O)NCCNc3ccc([N+](=O)[O-])cn3)cc2)sc1C(=O)c1c(F)cccc1F [Example G242] | 49 | 43 | 34 | 69
14 | CC(C)CCNC(=O)c1ccc(Nc2nc(N)c(C(=O)c3c(F)cccc3F)s2)cc1 [Example G247] | 23 | 17 | 12 | 54
15 | CCCN(CCC)C(=O)c1ccc(Nc2nc(N)c(C(=O)c3c(F)cccc3F)s2)cc1 [Example G248] | 17 | 8 | 13 | 55
16 | Nc1nc(Nc2ccc(C(=O)NCc3ccco3)cc2)sc1C(=O)c1c(F)cccc1F [Example G249] | 40 | 39 | 37 | 80
17 | Cc1ccc(CNC(=O)c2ccc(Nc3nc(N)c(C(=O)c4c(F)cccc4F)s3)cc2)o1 [Example G250] | 39 | 39 | 31 | 72
18 | CCN(CCc1ccccn1)C(=O)c1ccc(Nc2nc(N)c(C(=O)c3c(F)cccc3F)s2)cc1 [Example G251] | 11 | 10 | 16 | 48
19 | Cc1ccc(CNC(=O)c2ccc(Nc3nc(N)c(C(=O)c4c(F)cccc4F)s3)cc2)cc1 [Example G253] | 26 | 16 | 19 | 62
20 | COc1ccc(CNC(=O)c2ccc(Nc3nc(N)c(C(=O)c4c(F)cccc4F)s3)cc2)c(OC)c1 [Example G254] | 20 | 28 | 35 | 75
21 | CSc1ccc(NC(=O)c2ccc(Nc3nc(N)c(C(=O)c4c(F)cccc4F)s3)cc2)cc1 [Example G255] | 0 | −25 | 25 | 63
22 | Nc1nc(Nc2ccc(C(=O)NCCCCO)cc2)sc1C(=O)c1c(F)cccc1F [Example G256] | 11 | −12 | 19 | 49
23 | Nc1nc(Nc2ccc(C(=O)N3CCN(CCO)CC3)cc2)sc1C(=O)c1c(F)cccc1F [Example G257] | 2 | −43 | 33 | 51
24 | Nc1nc(Nc2ccc(C(=O)NCc3ccc(Cl)cc3)cc2)sc1C(=O)c1c(F)cccc1F [Example G258] | 20 | 25 | 41 | 84

Continued, in another order:

Row | CDK4 % Inhibition at 0.03 μM (human CDK4/cyclin D3) [%] | CDK2 % Inhibition at 0.03 μM (CDK2/cyclin A) [%] | Structure (SMILES) | HCT-116 % Inhibition at 0.1 μM (HCT-116 cell line) [%] | HCT-116 % Inhibition at 0.25 μM (HCT-116 cell line) [%]
25 | 41 | 36 | CN(CC(O)c1ccccc1)C(=O)c1ccc(Nc2nc(N)c(C(=O)c3c(F)cccc3F)s2)cc1 (centres unmarked) [Example G225] | 0 | 51
26 | 21 | 10 | CCCN(CCO)C(=O)c1ccc(Nc2nc(N)c(C(=O)c3c(F)cccc3F)s2)cc1 [Example G233] | 16 | 48
27 | 39 | 35 | COc1cc(CNC(=O)c2ccc(Nc3nc(N)c(C(=O)c4c(F)cccc4F)s3)cc2)cc(OC)c1OC [Example G234] | 20 | 63
28 | 36 | 39 | Nc1nc(Nc2ccc(C(=O)NCc3ccc(Cl)cc3Cl)cc2)sc1C(=O)c1c(F)cccc1F [Example G236] | 16 | 66
29 | 27 | 15 | CCN(CC)CCCC(C)NC(=O)c1ccc(Nc2nc(N)c(C(=O)c3c(F)cccc3F)s2)cc1 (centres unmarked) [Example G239] | 21 | 50
30 | 11 | 18 | Nc1nc(Nc2ccc(C(=O)N(CCCO)Cc3ccccn3)cc2)sc1C(=O)c1c(F)cccc1F [Example G243] | 31 | 40
31 | 27 | 35 | Cc1ccccc1CNC(=O)c1ccc(Nc2nc(N)c(C(=O)c3c(F)cccc3F)s2)cc1 [Example G244] | 30 | 67
32 | 34 | 36 | Cc1ccc([C@H](C)NC(=O)c2ccc(Nc3nc(N)c(C(=O)c4c(F)cccc4F)s3)cc2)cc1 [Example G245] | 18 | 55
33 | 35 | 32 | COc1cccc(CNC(=O)c2ccc(Nc3nc(N)c(C(=O)c4c(F)cccc4F)s3)cc2)c1 [Example G246] | 20 | 62
34 | 31 | 29 | Nc1nc(Nc2ccc(C(=O)NCc3cccc(F)c3)cc2)sc1C(=O)c1c(F)cccc1F [Example G252] | 33 | 67
35 | −20 | −30 | CN(Cc1ccccc1Cl)C(=O)c1ccc(Nc2nc(N)c(C(=O)c3c(F)cccc3F)s2)cc1 [Example G259] | 21 | 46
